Measured values from ChEMBL document CHEMBL4610009, “Modification of the lead molecule: Tryptophan and piperidine appended triazines reversing inflammation and hyeperalgesia in rats” (Bioorg Med Chem, 2020).
In brackets after ≈: the same amount, converted by molar mass. Activity calls are given as the source filed them. The rule behind the calls is not given here.

How the values were obtained:
[1] = target: T1, Prostaglandin G/H synthase 1 (Ovis aries, UniProt P05979); test: Inhibition of ovine COX1 using arachidonic acid as substrate incubated for 10 mins followed by substrate addition and measured after 2 mins by EIA assay
T1 sequence (P05979 whole entry): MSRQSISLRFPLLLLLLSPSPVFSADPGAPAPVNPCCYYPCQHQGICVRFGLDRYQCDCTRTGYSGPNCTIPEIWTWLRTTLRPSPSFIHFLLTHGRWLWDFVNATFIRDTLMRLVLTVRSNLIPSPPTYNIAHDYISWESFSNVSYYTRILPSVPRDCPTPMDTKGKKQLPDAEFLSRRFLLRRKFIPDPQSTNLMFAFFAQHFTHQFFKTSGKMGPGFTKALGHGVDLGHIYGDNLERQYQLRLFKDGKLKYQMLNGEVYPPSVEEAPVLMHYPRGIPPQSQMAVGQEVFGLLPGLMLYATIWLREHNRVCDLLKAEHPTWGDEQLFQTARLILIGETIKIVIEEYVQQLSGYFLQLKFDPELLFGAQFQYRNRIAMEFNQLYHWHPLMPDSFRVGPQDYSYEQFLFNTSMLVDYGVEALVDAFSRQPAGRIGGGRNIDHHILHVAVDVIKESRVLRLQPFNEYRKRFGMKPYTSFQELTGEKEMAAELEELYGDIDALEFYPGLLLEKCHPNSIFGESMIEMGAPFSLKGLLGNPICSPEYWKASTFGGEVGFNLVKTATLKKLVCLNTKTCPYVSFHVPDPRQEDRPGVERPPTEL

[2] = Acute toxicity in Wistar rat assessed as effect on kidney at 2000 mg/kg, po measured after 14 days by hematoxylin-eosin staining based light microscopy; assay type: organism-based; settings: in vivo, 336 h
[3] = Protein binding in plasma (unknown origin); assay type: ADME, cell-free; settings: read-out: PPB (converted)
[4] = Acute toxicity in Wistar rat assessed as effect on liver at 2000 mg/kg, po measured after 14 days by hematoxylin-eosin staining based light microscopy; assay type: organism-based; settings: in vivo, 336 h
Rattus norvegicus [5] = test: Analgesic activity in Wistar rat assessed as reduction in formalin-induced flitching in neurogenic phase at 10 mg/kg, ip incubated for 30 mins followed by formalin addition and observed for 60 mins; assay type: functional, organism-based
Rattus norvegicus [6] = test: Analgesic activity in Wistar rat assessed as reduction in acetic acid-induced writhing at 10 mg/kg, ip incubated for 30 mins followed by acetic acid addition and observed for 30 mins relative to control; assay type: functional; settings: 0.5 h
[7] = Ratio of drug level in brain to blood (unknown origin); assay type: ADME, tissue-based; settings: read-out: BBR
[8] = Solubility of compound in pure water; assay type: physicochemical
[9] = target: Prostaglandin G/H synthase 1 (Homo sapiens) (UniProt P23219); test: Inhibition of calcium ionophore-activated COX1 in human whole blood assessed as TXB2 level at 1 uM by ELISA; assay type: tissue-based
[10] = Drug absorption in human intestine; assay type: ADME, tissue-based; settings: read-out: Drug absorption
Rattus norvegicus [11] = test: Analgesic activity in Wistar rat assessed as reduction in formalin-induced flitching in inflammatory phase at 10 mg/kg, ip incubated for 30 mins followed by formalin addition and observed for 60 mins; assay type: functional, organism-based
[12] = target: T2, Prostaglandin G/H synthase 2 (Rattus norvegicus) (UniProt P35355); test: In vivo inhibition of COX2 in Wistar rat assessed as reduction in formalin-induced COX2 expression at 10 mg/kg, ip incubated for 30 mins followed by formalin addition and measured after 2 hrs by immunofluorescence based assay; assay type: functional, organism-based
T2 sequence (whole entry): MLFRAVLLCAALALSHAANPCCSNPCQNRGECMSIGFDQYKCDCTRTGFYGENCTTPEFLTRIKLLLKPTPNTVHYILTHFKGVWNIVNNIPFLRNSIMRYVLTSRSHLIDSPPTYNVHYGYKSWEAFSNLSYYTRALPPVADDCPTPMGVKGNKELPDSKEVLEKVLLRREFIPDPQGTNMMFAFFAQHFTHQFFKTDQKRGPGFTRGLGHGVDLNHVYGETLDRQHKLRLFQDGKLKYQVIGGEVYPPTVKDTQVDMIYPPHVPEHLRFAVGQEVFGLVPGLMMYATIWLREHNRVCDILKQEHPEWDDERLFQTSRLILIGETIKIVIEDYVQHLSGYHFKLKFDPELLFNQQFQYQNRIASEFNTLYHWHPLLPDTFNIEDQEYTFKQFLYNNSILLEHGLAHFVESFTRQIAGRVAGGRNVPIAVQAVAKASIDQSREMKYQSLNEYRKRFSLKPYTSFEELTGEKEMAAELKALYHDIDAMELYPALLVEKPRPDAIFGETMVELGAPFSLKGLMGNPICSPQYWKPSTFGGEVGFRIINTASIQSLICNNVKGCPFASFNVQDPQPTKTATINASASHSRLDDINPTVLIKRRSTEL

[13] = Acute toxicity in Wistar rat assessed as behavioral alterations at 2000 mg/kg, po observed for 14 days; assay type: organism-based; settings: in vivo, 336 h
Rattus norvegicus [14] = test: Analgesic activity in Wistar rat assessed as reduction in acetic acid-induced writhing at 10 mg/kg, ip incubated for 30 mins followed by acetic acid addition and observed for 30 mins; assay type: functional, organism-based

Chain of Prostaglandin G/H synthase 1 (Homo sapiens) (P23219 whole entry): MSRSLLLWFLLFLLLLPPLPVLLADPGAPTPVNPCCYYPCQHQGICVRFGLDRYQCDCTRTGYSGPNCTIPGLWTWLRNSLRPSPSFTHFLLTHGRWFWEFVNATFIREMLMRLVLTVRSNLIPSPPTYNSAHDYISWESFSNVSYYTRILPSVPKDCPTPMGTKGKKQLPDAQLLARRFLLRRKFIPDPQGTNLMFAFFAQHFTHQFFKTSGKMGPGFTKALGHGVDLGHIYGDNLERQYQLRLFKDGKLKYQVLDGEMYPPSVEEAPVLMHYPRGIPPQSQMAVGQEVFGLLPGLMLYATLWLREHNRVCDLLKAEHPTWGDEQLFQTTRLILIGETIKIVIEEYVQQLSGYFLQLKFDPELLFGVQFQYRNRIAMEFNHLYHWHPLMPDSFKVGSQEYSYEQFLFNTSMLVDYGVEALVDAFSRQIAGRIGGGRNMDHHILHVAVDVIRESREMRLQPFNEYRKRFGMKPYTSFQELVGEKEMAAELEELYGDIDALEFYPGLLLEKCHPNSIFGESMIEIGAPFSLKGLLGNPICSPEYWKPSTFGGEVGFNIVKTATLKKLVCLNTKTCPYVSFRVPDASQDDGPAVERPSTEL

## COC(=O)[C@H](Cc1c[nH]c2ccccc12)n1cc(COc2nc(Cl)nc(N3CCOCC3)n2)nn1
[1]
  IC50: > 10 µM

## COC(=O)[C@@H](N)Cc1cn(-c2nc(Cl)nc(N3CCCCC3)n2)c2ccccc12
[2]
  Activity: Non-Toxic
[3]
  fraction unbound: 0.149
[4]
  Activity: Non-Toxic
Rattus norvegicus [5]
  Activity: Active
[1]
  IC50: > 10 µM
Rattus norvegicus [6]
  inhibition in vivo at 10 mg/kg: 65%
[7]
  Kp: 0.66
[8]
  solubility: 740 µg/mL (≈ 1.78 mM)
[9]
  Activity: 0.84 ng/mL
[10]
  Fa: 98.2%
Rattus norvegicus [11]
  Activity: Active
[12]
  inhibition: Active
[13]
  Activity: Non-Toxic

## COC(=O)[C@@H](N)Cc1ccc(Oc2nc(Cl)nc(N3CCCCC3)n2)cc1
[1]
  IC50: > 10 µM

## COc1ccc2c(c1)c(CC(=O)O)c(C)n2C(=O)c1ccc(Cl)cc1 [INDOMETHACIN]
Rattus norvegicus [5]
  Activity: Active
Rattus norvegicus [6]
  inhibition in vivo at 10 mg/kg: 70%
[9]
  Activity: 0.59 ng/mL
Rattus norvegicus [11]
  Activity: Active

## COC(=O)[C@@H]1CCCN1c1nc(Cl)nc(Nc2ccc(N3CCOCC3=O)cc2)n1
Rattus norvegicus [14]
  Activity: Active

## COC(=O)[C@@H](N)Cc1cn(-c2nc(Cl)nc(Nc3ccc(N4CCOCC4=O)cc3)n2)c2ccccc12
[3]
  fraction unbound: 0.124
Rattus norvegicus [5]
  Activity: Active
[1]
  IC50: > 10 µM
Rattus norvegicus [6]
  inhibition in vivo at 10 mg/kg: 73%
[7]
  Kp: 0.09
[8]
  solubility: 30 µg/mL (≈ 0.0575 mM)
[9]
  Activity: 0.9 ng/mL
[10]
  Fa: 97.2%
Rattus norvegicus [11]
  Activity: Active
[12]
  inhibition: Active

## Clc1nc(OCc2cn(Cc3ccccc3)nn2)nc(N2CCOCC2)n1
[1]
  IC50: > 10 µM

## O=C1COCCN1c1ccc(Nc2nc(Cl)nc(N3CCCC3)n2)cc1
[3]
  fraction unbound: 0.143
[1]
  IC50: > 10 µM
[7]
  Kp: 0.01
[8]
  solubility: 4910 µg/mL (≈ 13.1 mM)
[10]
  Fa: 96.8%

## CC[C@H](C)[C@H](Nc1nc(Cl)nc(Nc2ccc(N3CCOCC3=O)cc2)n1)C(=O)OC
[1]
  IC50: > 10 µM
Rattus norvegicus [14]
  Activity: Active

## COC(=O)[C@H](Cc1ccccc1)n1cc(COc2nc(Cl)nc(N3CCOCC3)n2)nn1
[1]
  IC50: > 10 µM

## O=C1COCCN1c1ccc(Nc2nc(Cl)nc(OCc3cn(Cc4ccccc4)nn3)n2)cc1
[1]
  IC50: 6 µM

## Clc1nc(OCc2cn(Cc3ccccc3)nn2)nc(N2CCCC2)n1
[1]
  IC50: 8 µM

## COC(=O)[C@H](Cc1ccccc1)Nc1nc(Cl)nc(Nc2ccc(N3CCOCC3=O)cc2)n1
[1]
  IC50: > 10 µM
Rattus norvegicus [14]
  Activity: Active

## COC(=O)[C@H](Cc1ccccc1)n1cc(COc2nc(Cl)nc(Nc3ccc(N4CCOCC4=O)cc3)n2)nn1
[1]
  IC50: 8 µM

## COC(=O)[C@H](Cc1ccc(O)cc1)n1cc(COc2nc(Cl)nc(Nc3ccc(N4CCOCC4=O)cc3)n2)nn1
[1]
  IC50: > 10 µM

## COC(=O)[C@H](Cc1c[nH]c2ccccc12)n1cc(COc2nc(Cl)nc(N3CCCCC3)n2)nn1
[1]
  IC50: > 10 µM

## O=C(O)c1ccccc1Nc1nc(Cl)nc(Nc2ccc(N3CCOCC3=O)cc2)n1
[1]
  IC50: > 10 µM

## COC(=O)[C@H](Cc1ccc(O)cc1)n1cc(COc2nc(Cl)nc(N3CCCC3)n2)nn1
[1]
  IC50: > 10 µM

## Clc1ccc(Nc2nc(Cl)nc(OCc3cn(Cc4ccccc4)nn3)n2)cc1
[1]
  IC50: 4 µM

## N[C@@H](Cc1cn(-c2nc(Cl)nc(N3CCOCC3)n2)c2ccccc12)C(=O)O
[3]
  fraction unbound: 0.324
[1]
  IC50: 1 µM
[7]
  Kp: 0.19
[8]
  solubility: 5810 µg/mL (≈ 14.4 mM)
[10]
  Fa: 96.9%

## COC(=O)[C@@H](N)Cc1ccc(Oc2nc(Cl)nc(N3CCOCC3)n2)cc1
Rattus norvegicus [14]
  Activity: Active

## COC(=O)[C@H](Cc1ccc(O)cc1)n1cc(COc2nc(Cl)nc(N3CCOCC3)n2)nn1
[1]
  IC50: > 10 µM

## COC(=O)[C@H](Cc1ccccc1)n1cc(COc2nc(Cl)nc(Nc3ccc(Cl)cc3)n2)nn1
[1]
  IC50: 5 µM

## COC(=O)[C@H](Cc1cn(-c2nc(Cl)nc(Nc3ccc(N4CCOCC4=O)cc3)n2)c2ccccc12)NC(=O)OC(C)(C)C
Rattus norvegicus [14]
  Activity: Active

## COC(=O)[C@H](Cc1ccccc1)n1cc(COc2nc(Cl)nc(N3CCCC3)n2)nn1
[1]
  IC50: > 10 µM
